Measured values taken from the supplement of paper PMC13380429.

What was measured:
Conditions in all cases: 72 h
Vero E6 [1] = experiment: drug sensitivity score (DSS) for viability; higher = more toxic; extreme values may be limits of the assay
Calu-3 [2] = experiment: as above
HepG2 [3] = experiment: as above
U2OS [4] = experiment: as above
Caco-2 [5] = experiment: as above
Vero E6 [6] = experiment: cell viability relative to DMSO; higher = less toxic
Calu-3 [7] = experiment: as above
HepG2 [8] = experiment: as above
U2OS [9] = experiment: as above
Caco-2 [10] = experiment: as above
Vero E6 [11] = experiment: relative viability EC50 (midpoint between 100% and the lowest measured viability); higher = less toxic
Calu-3 [12] = experiment: as above
HepG2 [13] = experiment: as above
U2OS [14] = experiment: as above

Structure (SMILES)	drug sensitivity score (Vero E6 [1])	drug sensitivity score (Calu-3 [2])	drug sensitivity score (HepG2 [3])	drug sensitivity score (U2OS [4])	drug sensitivity score (Caco-2 [5])	cell viability (Vero E6 [6]; 1 nM) [%]	cell viability (Vero E6 [6]; 10 nM) [%]	cell viability (Vero E6 [6]; 100 nM) [%]	cell viability (Vero E6 [6]; 1000 nM) [%]	cell viability (Vero E6 [6]; 10000 nM) [%]	cell viability (Calu-3 [7]; 1 nM) [%]	cell viability (Calu-3 [7]; 10 nM) [%]	cell viability (Calu-3 [7]; 100 nM) [%]	cell viability (Calu-3 [7]; 1000 nM) [%]	cell viability (Calu-3 [7]; 10000 nM) [%]	cell viability (HepG2 [8]; 1 nM) [%]	cell viability (HepG2 [8]; 10 nM) [%]	cell viability (HepG2 [8]; 100 nM) [%]	cell viability (HepG2 [8]; 1000 nM) [%]	cell viability (HepG2 [8]; 10000 nM) [%]	cell viability (U2OS [9]; 1 nM) [%]	cell viability (U2OS [9]; 10 nM) [%]	cell viability (U2OS [9]; 100 nM) [%]	cell viability (U2OS [9]; 1000 nM) [%]	cell viability (U2OS [9]; 10000 nM) [%]	cell viability (Caco-2 [10]; 1 nM) [%]	cell viability (Caco-2 [10]; 10 nM) [%]	cell viability (Caco-2 [10]; 100 nM) [%]	cell viability (Caco-2 [10]; 1000 nM) [%]	cell viability (Caco-2 [10]; 10000 nM) [%]	relative viability EC50 (Vero E6 [11]) [µM]	relative viability EC50 (Calu-3 [12]) [µM]	relative viability EC50 (HepG2 [13]) [µM]	relative viability EC50 (U2OS [14]) [µM]
CC1=C(/C=C/C(C)=C/C=C/C(C)=C/C(=O)Nc2ccc(O)cc2)C(C)(C)CCC1 [fenretinide]	0	0.9	1.2	0.1	2.5	95	98.9	101	101	91.1	98.9	99.9	93.3	89.5	84	99.6	92.6	99.1	91.3	80	97.7	97.8	99.5	104	86.8	98.7	103	100	93.2	67.9	> 10	> 10	> 10	> 10
CNC(=O)[C@@H](NC(=O)[C@H](CC(C)C)[C@H](O)C(=O)NO)C(C)(C)C [marimastat]	0	3.6	0	0	1.3	108	103	100	104	90.7	96.2	102	86.4	87.4	81.3	103	99.7	121	106	113	98.7	100	92.9	95.9	91.5	79.5	106	89.9	99.9	70.5	> 10	> 10	> 10	> 10
COc1cc2nc(C3CC3)nc(N3CCN(c4ccccc4OC)CC3)c2cc1OC [ML314]	3.1	1.6	3.8	0	2.9	96.9	109	95	87.6	62.9	96.6	101	102	92.7	78.3	102	92.4	100	91.6	54.1	96.5	97.4	91.5	98.2	87.1	100	91.5	97.9	94.8	59	–	> 10	–	> 10
C[C@@H]1COC(Nc2ccc3ncnc(Nc4ccc(OCc5nccs5)c(Cl)c4)c3c2)=N1	5.6	13.2	0	0	3.4	107	99.5	94	70.7	67	103	107	81.8	41.3	36.1	100	100	94.8	92.3	98.8	97.8	96.7	98.9	93.3	90	95.7	104	97.2	81.6	67.7	–	0.184	> 10	> 10
C[C@H](NC(=O)/C(C#N)=C/c1ccc(O)c(O)c1)c1ccccc1 [tyrphostin-AG-835]	0	0	1	0	1.5	98	90.4	98.5	89.6	89.6	89.4	96.8	109	97.2	98.2	109	90.9	106	97.3	78.9	97.2	98.5	98.3	98.3	91	92.2	97.2	90.5	93.7	74.6	> 10	> 10	> 10	> 10
Nc1ccn([C@@H]2O[C@H](CO)[C@@H](O)C2(F)F)c(=O)n1 [gemcitabine]	11.9	8.2	23.1	8.6	9.9	102	102	62.3	59.4	61.4	97.5	106	86.5	63.9	40.8	99.5	71.2	38.3	38.9	40.3	97	105	72.9	67.8	74.1	100	89	72.5	66.2	72	–	0.529	0.0105	–
